Test [1] concerns H1703-FLIP(L) cells. Briefly: Annexin V-PE flow cytometry apoptosis test, H1703-FLIP(L) cells (TRAIL alone, molecule alone or combination). The format is cell-based, Human. As to conditions: 18 hours; for sensitization to TRAIL-induced apoptosis (percentage of apoptosis, annexin V): molecule at its most suitable concentration combined with TRAIL 100 ng/mL. As for the experimental part: (§1) Cell Culture. H1703 (Human non-small lung cancer cell line) cells were grown in RPMI 1640 (LONZA) culture media supplemented with 10% fetal bovine serum and puromycine antibiotic (2 μg/ml) from Sigma-Aldrich. The cells were kept in a humidified atmosphere in an incubator at 37° C. and 5% CO2. H1703 cells were a kind gift from O. Micheau (INSERM, Dijon, France).
(§2) Flow Cytometry Analysis. The apoptotic cell death was confirmed by flow cytometry (cytoFLEX, Backman Coulter). After treatment of cells with TRAIL alone, c-FLIP inhibitor alone, or co-admninistration TRAIL/c-FLIP inhibitor, the cells were collected, washed and re-suspended in 1× Annexin binding buffer. Annexin-V-PE was added to cells, and left 20 minutes at room temperature in the dark. Flow cytometric analysis was carried out in the final step.
(§3) Sensitivity of the H1703 cells to TRAIL: The first goal was to verify that the H1703 cells are sensitive to TRAIL. To do so, the cells were treated with TRAIL at a concentration of 100 ng/mL for 18 hours and then the cells were washed and incubated with Annexin V-PE to evaluate the apoptosis level using flow cytometry. […] So, the Inventors applied a range of concentrations for each molecule to determine the appropriate dose that has no toxic effect on the cells when administered alone.
Combination Treatment of TRAIL with each one of the 9 Identified Molecules: Following the identification of the best concentration for each compound, HE1703 cells were treated with TRAIL (100 ng/mL) alone or with one of the 9 identified molecules alone or with a combination of TRAIL and one of the 9 identified molecules for 18 hours. The percentage of apoptosis was measured by flow cytometry using an annexin V test, as described above. The results obtained are presented on FIGS. 2(A, B and C).
On the technique in general: In flow cytometry, cells or beads pass a laser one at a time.

The target in test [2] is T1, cFLIP/FADD interaction (Homo sapiens, UniProt O15519).
T1 construct: made in house; host or cells: E. coli: Rosetta (pET24b, c-FLIP(s)) and DH5α (pMALC2, FADD)
Briefly: Pull down assay of FADD/c-FLIP interaction (MBP-trap column, Western blot). The test is classed as binding. The following applies: c-FLIP(s) and FADD incubated 18 hours with molecule at different concentrations. The protocol:
Transformation of Competent Bacteria. FLIP (s) and FADD genes were previously cloned and inserted in their respective plasmids pET24b and pMALC2, and provided as a kind gift from Pr. Richard Daniellou (ICOA, Orléans, France). Pet24b and Pmalc2 plasmids were mixed with their corresponding competent bacterial cells, Rosetta and DH5α cells respectively, and left on ice for 20 minutes. Heat-shocking steps were performed before adding LB medium and leaving cells to grow on 37° C. for 1 hour and then cells were spread on LB plates with appropriate antibiotics and incubated at 37° C. overnight.
Production of c-FLIP (s) and FADD proteins. Transformed competent cells were cultured in large amounts of LB growth at 37° C. and the expression of each protein was stimulated using 1M IPTG (Isopropyl β-D-1-thiogalactopyranoside) and cells were left to grow for 18 hours at 30° C. Cells were collected, centrifuged and resuspended in Tris/NaCl buffer (Tris 50 mM, NaCl 100 mM, pH 8.0) after which they were centrifuged at 6000 g, for 10 minutes at 4° C. Supernatant was removed and bacterial pellets were used for cell lysis and protein purification on Ni-NTA column and MBP-trap column for cFLIP(s) and FADD purification, respectively. The FLIP(s) is a His-tagged protein, and FADD is a MBP-tagged protein. The purified proteins were incubated with each molecule for 18 hours at +4° C. and then, the samples were passed again on MBP-trap columns.
Western Blot Analysis. The samples, purified and obtained after FADD/FLIP/compounds incubation, were run on 4-12% Bis-Tris polyacrylamide gels to evaluate the presence of FLIP and FADD bands.
Once purified, c-FLIP(s) and FADD were incubated for 18 hours with each one of the nine c-FLIP inhibitors at different concentrations. The samples were then passed on a MBP-trap column, which binds FADD (MBP-tagged protein). If cFLIP is still bound to FADD, then it is captured with FADD on the MBP column. Samples were then evaluated using a Western blot analysis by monitoring the disappearance of the c-FLIP band with increasing concentration of the c-FLIP inhibitor. Disappearance of the c-FLIP band in Western Blot corresponds to FADD-c-FLIP interaction inhibition.
Background: In western blotting, separated proteins are transferred to a membrane and probed.

For test [3], the system named is H1703-Mock cells. Briefly: Cleavage of caspase-8, caspase-3 and PARP in H1703-mock cells. The test is classed as cell-based, Human. The source says:
(§4) Reactivation of the Apoptotic Pathway by c-FLIP inhibitors combined with TRAIL: Cleavage of caspases is a marker of apoptosis pathway initiation. Thus, the present Inventors have studied the cleavage of caspase-8, of caspase-3 and of PARP (a caspase-3 substrate, which undergoes cleavage during apoptosis) in H1703-mock cells and in H1703-FLIP(L) cells, in the presence of TRAIL alone, in the presence of a c-FLIP inhibitor (molecules (1), (3), (4) and (9)), and of a combination of TRAIL and one of the c-FLIP inhibitors. The results obtained are presented on FIG. 4(A)-(B). […] However, no cleavage was observed when H1703-MOCK cells were treated with a c-FLIP inhibitor alone.

Test [4] has as its system H1703-FLIP(L) cells. Briefly: Cleavage of caspase-8, caspase-3 and PARP in H1703-FLIP(L) cells. The test is classed as cell-based, Human. The following applies: H1703 cells overexpressing FLIP.
Description: as §4

Test [5] relates to H1703-Mock cells. Briefly: Annexin V-PE flow cytometry apoptosis test, H1703-Mock cells. The format is cell-based, Human. As to conditions: TRAIL 100 ng/mL, 18 hours. As for the experimental part:
as §1, §2, §3

The mark [6] stands for this setting: TRAIL combined with c-FLIP inhibitor.
Where [7] appears, read: combination of TRAIL and c-FLIP inhibitor.

Entries after “also recorded” stand apart in the source; their conditions may differ.

`Cc1cc(/N=N/c2c(O)nc3ccccc3c2O)ccc1/N=N/c1ccc(C(=O)N(C)C)cc1` [Molecule (1)]: the “sensitization to TRAIL-induced apoptosis (percentage of apoptosis, annexin V)” value in test [1] is reported as “most active”. Further, the “inhibition of the interaction between FADD and c-FLIP (disappearance of the c-FLIP band)” value (from here on “inhibition”) in test [2] was “inhibit the interaction between FADD and c-FLIP”. For the same molecule, the “cleavage of caspase-8, caspase-3 and PARP” value (from here on “cleavage”) was “cleavage of caspase-8, caspase-3 and PARP” in test [3] (setting [6]); “no cleavage” in test [3] (c-FLIP inhibitor alone); “no cleavage observed” in test [4] (c-FLIP inhibitor alone); “induce cleavage of caspase-8, caspase-3 and PARP” in test [4] (setting [7]).
In the case of `N#Cc1cc(-c2ccccc2)[nH]c1-c1nccc2ccccc12` [Molecule (3)], the “sensitization to TRAIL-induced apoptosis (percentage of apoptosis, annexin V)” value in test [1] is listed as “most active”. Besides, in test [2], the “inhibition” value is “inhibit the interaction between FADD and c-FLIP”. The “cleavage” value is “cleavage of caspase-8, caspase-3 and PARP” in test [3] (setting [6]); “no cleavage” in test [3] (c-FLIP inhibitor alone); “no cleavage observed” in test [4] (c-FLIP inhibitor alone); “induce cleavage of caspase-8, caspase-3 and PARP” in test [4] (setting [7]).
Turning to `Cc1c2cnccc2c(C)c2c1c1ccccc1n2CCOC(=O)c1ccccc1` [Molecule (4)], in test [1], the “sensitization to TRAIL-induced apoptosis (percentage of apoptosis, annexin V)” value is “most active”. For the same molecule, the “inhibition” value in test [2] was “inhibit the interaction between FADD and c-FLIP”. The “cleavage” value in test [3] (setting [6]) is “cleavage of caspase-8, caspase-3 and PARP”; in test [3] (c-FLIP inhibitor alone) it was “no cleavage”; in test [4] (c-FLIP inhibitor alone) it was “no cleavage observed”; in test [4] (setting [7]), “induce cleavage of caspase-8, caspase-3 and PARP”.
`NS(=O)(=O)c1ccc(NC(=S)NC(=O)c2ccco2)cc1` [Molecule (6)]: the “inhibition” value in test [2] was “no effect”.
On to `CC1=C(C)Cc2c(OC(=O)c3ccccc3)ccc(OC(=O)c3ccccc3)c2C1` [Molecule (7)], for which, in test [2], the “inhibition” value is “inhibit the interaction between FADD and c-FLIP”.
`Cc1cccc(Nc2sc(C(=O)c3cc4cc(Cl)ccc4o3)c(N)c2C#N)c1` [Molecule (9)]: the “sensitization to TRAIL-induced apoptosis (percentage of apoptosis, annexin V)” value in test [1] is recorded as “most active”. Further, the “inhibition” value in test [2] was “inhibit the interaction between FADD and c-FLIP”. Further, the “cleavage” value is “cleavage of caspase-8, caspase-3 and PARP” in test [3] (setting [6]); “no cleavage” in test [3] (c-FLIP inhibitor alone); “no cleavage observed” in test [4] (c-FLIP inhibitor alone); “induce cleavage of caspase-8, caspase-3 and PARP” in test [4] (setting [7]).

B1: TRAIL: death ligand TRAIL; KillerTRAIL (human recombinant BULK) purchased from Alexis Biochemicals (protein, UniProt P50591 39-281, looked up)
extracellular domain: TNELKQMQDKYSKSGIACFLKEDDSYWDPNDEESMNSPCWQVKWQLRQLVRKMILRTSEETISTVQEKQQNISPLVRERGPQRVAAHITGTRGRSNTLSSPNSKNEKALGRKINSWESSRSGHSFLSNLHLRNGELVIHEKGFYYIYSQTYFRFQEEIKENTKNDKQMVQYIYKYTSYPDPILLMKSARNSCWSKDAEYGLYSIYQGGIFELKENDRIFVSVTNEHLIDMDHEASFFGAFLVG
modifications: extracellular domain KillerTRAIL recombinant, Alexis
notes: death ligand TRAIL; KillerTRAIL (human recombinant BULK) purchased from Alexis Biochemicals
B1: in test [5], the level of apoptosis entry is on record as “more than 60%”. In addition, the “effect of TRAIL alone on apoptosis” value in test [1] (TRAIL 100 ng/mL, H1703-FLIP(L) cells overexpressing c-FLIP) is recorded as “resistant to TRAIL; also recorded: no effect”. The “cleavage” value in test [3] (TRAIL alone) is “cleavage of caspase-8, caspase-3 and PARP”; in test [4] (TRAIL alone), “no cleavage observed”.

(Values after patent publication US20190282563A1, “Selective c-FLIP Inhibitors as Anticancer Agents” (Centre National de la Recherche Scientifique, priority 2016, published 2019).)
